Source: patent US8426397B2, “3 (3-pyrimidin-2-ylbenzyl)-1,2,4-triazolo[4,3-b]pyridazine derivatives” (Merck Patent Gesellschaft mit Beschränkter Haftung, priority 2008, dated 2013)

Experiments:
Met kinase [1] = molecular target: T1, Met kinase (Homo sapiens, UniProt P08581); experiment: Met kinase inhibition (cell); format: cell-based
Target sequence in this assay (P08581 25-1390): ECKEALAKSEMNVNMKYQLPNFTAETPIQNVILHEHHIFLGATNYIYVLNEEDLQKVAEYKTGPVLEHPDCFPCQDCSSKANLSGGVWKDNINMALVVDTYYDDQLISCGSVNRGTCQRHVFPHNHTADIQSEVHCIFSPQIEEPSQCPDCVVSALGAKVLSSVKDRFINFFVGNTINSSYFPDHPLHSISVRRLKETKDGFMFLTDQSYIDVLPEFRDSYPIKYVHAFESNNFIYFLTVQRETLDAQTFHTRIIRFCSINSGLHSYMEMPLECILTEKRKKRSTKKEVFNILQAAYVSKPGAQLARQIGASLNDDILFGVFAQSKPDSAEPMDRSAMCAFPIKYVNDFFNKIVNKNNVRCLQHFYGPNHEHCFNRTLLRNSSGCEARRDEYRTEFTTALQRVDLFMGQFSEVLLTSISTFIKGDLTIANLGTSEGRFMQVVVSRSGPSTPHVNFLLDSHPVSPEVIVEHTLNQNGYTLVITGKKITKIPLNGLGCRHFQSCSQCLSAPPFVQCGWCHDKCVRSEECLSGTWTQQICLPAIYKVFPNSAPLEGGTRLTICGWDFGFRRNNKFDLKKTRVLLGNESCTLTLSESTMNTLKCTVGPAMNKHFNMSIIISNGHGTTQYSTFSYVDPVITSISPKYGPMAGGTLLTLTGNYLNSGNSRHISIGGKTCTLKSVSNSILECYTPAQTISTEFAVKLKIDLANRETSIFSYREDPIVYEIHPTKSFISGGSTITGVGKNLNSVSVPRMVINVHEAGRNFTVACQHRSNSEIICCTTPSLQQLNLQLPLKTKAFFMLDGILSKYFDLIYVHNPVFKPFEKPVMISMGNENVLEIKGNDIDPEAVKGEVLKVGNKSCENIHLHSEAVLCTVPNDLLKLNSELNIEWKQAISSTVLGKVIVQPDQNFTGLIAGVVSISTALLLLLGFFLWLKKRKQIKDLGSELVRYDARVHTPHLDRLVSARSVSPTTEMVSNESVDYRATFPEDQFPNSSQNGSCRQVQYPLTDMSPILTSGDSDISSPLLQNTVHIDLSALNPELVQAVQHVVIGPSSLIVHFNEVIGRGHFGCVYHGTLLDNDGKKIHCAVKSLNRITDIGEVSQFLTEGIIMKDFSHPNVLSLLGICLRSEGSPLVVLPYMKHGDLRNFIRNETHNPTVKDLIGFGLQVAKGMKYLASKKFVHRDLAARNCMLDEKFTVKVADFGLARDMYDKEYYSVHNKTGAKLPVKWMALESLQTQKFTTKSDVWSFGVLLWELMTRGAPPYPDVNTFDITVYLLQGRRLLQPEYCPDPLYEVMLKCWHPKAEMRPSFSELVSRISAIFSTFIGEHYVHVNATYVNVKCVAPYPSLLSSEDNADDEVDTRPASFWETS

Met kinase [2] = molecular target: T1, Met kinase; experiment: Met kinase flashplate method (enzyme); format: biochemical; set-up: 6His (N); purchased Upstate 14-526; host or cells: Sf21 insect cells (S. frugiperda), baculovirus; details: Met kinase inhibition
Excerpt: According to the manufacturer's data (Met, active, Upstate, catalogue No. 14-526), Met kinase is expressed for the purposes of protein production in insect cells (Sf21; S. frugiperda) and subsequent affinity-chromatographic purification as “N-terminal 6His-tagged” recombinant human protein in a baculovirus expression vector.
Flashplate Method (Met Kinase)
The test plates used are 96-well Flashplate® microtitre plates from Perkin Elmer (Cat. No. SMP200). The components of the kinase reaction described below are pipetted into the assay plate. The Met kinase and the substrate poly Ala-Glu-Lys-Tyr, (pAGLT, 6:2:5:1), are incubated for 3 hrs at room temperature with radioactively labelled ^33P-ATP in the presence and absence of test substances in a total volume of 100 μl. The reaction is terminated using 150 μl of a 60 mM EDTA solution. After incubation for a further 30 min at room temperature, the supernatants are filtered off with suction, and the wells are washed three times with 200 μl of 0.9% NaCl solution each time. The measurement of the bound radioactivity is carried out by means of a scintillation measuring instrument (Topcount NXT, Perkin-Elmer).
The full value used is the inhibitor-free kinase reaction. This should be approximately in the range 6000-9000 cpm. The pharmacological zero value used is staurosporin in a final concentration of 0.1 mM. The inhibitory values (IC50) are determined using the RS1_MTS program.
Kinase reaction conditions per well:
10 μl of substance to be tested in assay buffer with 10% of DMSO
10 μl of ATP (final concentration 1 μM cold, 0.35 μCi of ^33P-ATP)
50 μl of Met kinase/substrate mixture in assay buffer;
• (10 ng of enzyme/well, 50 ng of pAGLT/well) • Solutions used: • Assay buffer: • 50 mM HEPES • 3 mM magnesium chloride • 3 μM sodium orthovanadate • 3 mM manganese(II) chloride • 1 mM dithiothreitol (DTT) • pH=7.5 (to be set using sodium hydroxide) • Stop solution: • 60 mM Titriplex III (EDTA) • ^33P-ATP: Perkin-Elmer; • Met kinase: Upstate, Cat, No. 14-526, Stock 1 μg/10 μl; spec. activity 954 U/mg; • Poly-Ala-Glu-Lys-Tyr, 6:2:5:1: Sigma Cat. No. P1152 In-Vivo Tests
Target sequence in this assay (P08581 974-1390 limits assumed): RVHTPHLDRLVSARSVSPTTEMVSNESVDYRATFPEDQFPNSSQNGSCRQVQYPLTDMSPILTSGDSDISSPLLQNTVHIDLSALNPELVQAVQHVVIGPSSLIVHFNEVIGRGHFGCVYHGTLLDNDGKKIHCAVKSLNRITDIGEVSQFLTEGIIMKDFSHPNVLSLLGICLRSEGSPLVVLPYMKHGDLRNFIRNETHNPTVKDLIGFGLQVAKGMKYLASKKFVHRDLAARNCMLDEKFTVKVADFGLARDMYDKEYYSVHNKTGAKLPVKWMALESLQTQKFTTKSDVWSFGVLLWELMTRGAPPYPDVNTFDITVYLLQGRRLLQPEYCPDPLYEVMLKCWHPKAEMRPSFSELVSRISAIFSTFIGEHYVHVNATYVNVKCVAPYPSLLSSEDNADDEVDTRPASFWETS

Row | Compound | IC50 (Met kinase [1]) | IC50 (Met kinase [2])
1 | COc1ccc2nnc(C(F)(F)c3cccc(-c4ncc(-c5cnn(CCN6CCCC6)c5)cn4)c3)n2n1 [A20] | 1 to 100 nM | 1 to 100 nM
2 | COCCOc1cnc(-c2cccc(Cc3nnc4ccc(C(=O)O)nn34)c2)nc1 [A38, 3-{3-[5-(2-methoxyethoxy)pyrimidin-2-yl]benzyl}-1,2,4-triazolo[4,3-b]pyridazine-6-carboxylic acid] | 100 to 10000 nM | 1 to 100 nM
3 | COCCOc1cnc(-c2cccc(Cc3nnc4ccc(C(=O)NCCO)nn34)c2)nc1 [A41] | > 10000 nM | 1 to 100 nM
4 | CNC(=O)c1ccc2nnc(Cc3cccc(-c4ncc(OCCOC)cn4)c3)n2n1 [A28] | 100 to 10000 nM | 1 to 100 nM
5 | CCCNC(=O)c1ccc2nnc(Cc3cccc(-c4ncc(OCCOC)cn4)c3)n2n1 [A39, N-propyl-3-{3-[5-(2-methoxyethoxy)pyrimidin-2-yl]benzyl}-1,2,4-triazolo[4,3-b]pyridazine-6-carboxamide] | 100 to 10000 nM | 1 to 100 nM
6 | COCCOc1cnc(-c2cccc(Cc3nnc4ccc(C(=O)N(C)C)nn34)c2)nc1 [A40] | 100 to 10000 nM | 1 to 100 nM
